# Source: ChEMBL document CHEMBL6078729, “Synthetic glycol-split heparin tri- and tetrasaccharides provide new insights into structural peculiarities for antiheparanase activity” (Bioorg Med Chem, 2025)
# pIC50: −log10 of the molar value.
# Target: T1, Heparanase (Homo sapiens, UniProt Q9Y251)
# T1 sequence (Q9Y251 whole entry): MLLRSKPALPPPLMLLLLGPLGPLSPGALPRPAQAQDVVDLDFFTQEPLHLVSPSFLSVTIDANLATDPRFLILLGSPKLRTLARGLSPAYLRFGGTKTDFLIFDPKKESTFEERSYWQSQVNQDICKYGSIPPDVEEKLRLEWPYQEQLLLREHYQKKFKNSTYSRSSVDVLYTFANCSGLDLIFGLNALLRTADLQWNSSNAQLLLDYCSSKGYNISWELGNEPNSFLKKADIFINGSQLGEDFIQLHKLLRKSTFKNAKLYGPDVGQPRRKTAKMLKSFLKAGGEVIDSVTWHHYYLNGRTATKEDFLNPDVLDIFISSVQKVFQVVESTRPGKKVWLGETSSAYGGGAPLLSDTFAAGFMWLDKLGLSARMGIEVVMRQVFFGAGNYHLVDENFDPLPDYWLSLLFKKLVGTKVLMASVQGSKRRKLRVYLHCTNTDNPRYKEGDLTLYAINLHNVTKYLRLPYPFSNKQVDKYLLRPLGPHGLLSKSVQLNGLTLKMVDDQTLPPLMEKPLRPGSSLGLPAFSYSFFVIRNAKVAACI
# Assay: Inhibition of recombinant human heparanase assessed as fondaparinux cleavage by measuring disaccharide by colorimetric analysis
row,pIC50,Structure (SMILES)
1,< 4.07,CO[C@H]1O[C@H](COS(=O)(=O)O)[C@@H](O[C@@H]2O[C@@H](C(=O)O)[C@@H](O[C@H]3O[C@H](COS(=O)(=O)O)[C@@H](O[C@@H]4O[C@@H](C(=O)O)[C@@H](OC)[C@H](O)[C@H]4O)[C@H](O)[C@H]3NS(=O)(=O)O)[C@H](O)[C@H]2O)[C@H](O)[C@H]1NS(=O)(=O)O
2,4.42,CO[C@H]1O[C@H](COS(=O)(=O)O)[C@@H](O[C@@H](CO)O[C@@H](C(=O)O)[C@@H](CO)O[C@H]2O[C@H](COS(=O)(=O)O)[C@@H](OC)[C@H](O)[C@H]2NS(=O)(=O)O)[C@H](O)[C@H]1NS(=O)(=O)O
3,4.11,CO[C@H]1O[C@H](COS(=O)(=O)O)[C@@H](O[C@@H](CO)O[C@H](C(=O)O)[C@@H](CO)O[C@H]2O[C@H](COS(=O)(=O)O)[C@@H](OC)[C@H](O)[C@H]2NS(=O)(=O)O)[C@H](O)[C@H]1NS(=O)(=O)O
4,4.15,CO[C@H]1O[C@H](COS(=O)(=O)O)[C@@H](O[C@H](O[C@H](C(=O)O)[C@H](O[C@H]2O[C@H](COS(=O)(=O)O)[C@@H](OC)[C@H](O)[C@H]2NS(=O)(=O)O)C(=O)O)C(=O)O)[C@H](O)[C@H]1NS(=O)(=O)O
5,5.12,CO[C@H]1O[C@H](COS(=O)(=O)O)[C@@H](O[C@H](O[C@@H](C(=O)O)[C@@H](O[C@H]2O[C@H](COS(=O)(=O)O)[C@@H](O[C@H](O[C@@H](C(=O)O)[C@@H](OC)C(=O)O)C(=O)O)[C@H](O)[C@H]2NS(=O)(=O)O)C(=O)O)C(=O)O)[C@H](O)[C@H]1NS(=O)(=O)O
6,< 3.99,CO[C@H]1O[C@H](COS(=O)(=O)O)[C@@H](O[C@@H]2O[C@H](C(=O)O)[C@@H](O[C@H]3O[C@H](COS(=O)(=O)O)[C@@H](OC)[C@H](O)[C@H]3NS(=O)(=O)O)[C@H](O)[C@H]2O)[C@H](O)[C@H]1NS(=O)(=O)O
7,< 3.99,CO[C@H]1O[C@H](COS(=O)(=O)O)[C@@H](O[C@@H]2O[C@@H](C(=O)O)[C@@H](O[C@H]3O[C@H](COS(=O)(=O)O)[C@@H](OC)[C@H](O)[C@H]3NS(=O)(=O)O)[C@H](O)[C@H]2O)[C@H](O)[C@H]1NS(=O)(=O)O
8,< 4.02,CO[C@H]1O[C@H](COS(=O)(=O)O)[C@@H](O[C@H](O[C@@H](C(=O)O)[C@H](O[C@H]2O[C@H](COS(=O)(=O)O)[C@@H](OC)[C@H](O)[C@H]2NS(=O)(=O)O)C(=O)O)C(=O)O)[C@H](O)[C@H]1NS(=O)(=O)O
9,4.20,CO[C@H]1O[C@H](COS(=O)(=O)O)[C@@H](O[C@@H](CO)O[C@@H](C(=O)O)[C@H](CO)O[C@H]2O[C@H](COS(=O)(=O)O)[C@@H](O[C@@H](CO)O[C@@H](C(=O)O)[C@H](CO)OC)[C@H](O)[C@H]2NS(=O)(=O)O)[C@H](O)[C@H]1NS(=O)(=O)O
